Article PMC8507746, “The FHP01 DDX3X Helicase Inhibitor Exerts Potent Anti-Tumor Activity In Vivo in Breast Cancer Pre-Clinical Models” (Cancers, 2021)

Tests used:
[1] = system: WNT signaling (TCF/LEF transcriptional activity); test: TCF/LEF luciferase reporter assay (WNT1/WNT3A) in MDA MB 231 cells; type: cell-based, human; details: MDA MB 231, 6 μM, 48 h
Method: MDA MB 231 cells were seeded at 3 × 10^4 cells/well density in 12-well plates, in triplicate, and transfected with 250 ng of the M50 Super 8× TOPFlash reporter vector (Addgene Plasmid #12456) and 1 μg of expression vectors inducing the WNT pathway (Wnt1-V5, Addgene plasmid #43807, and Wnt3A-V5, Addgene plasmid #43810). Eight hours after transfection, cells were treated with FHP01, XAV939 (Merck, Kenilworth, NJ, USA) or DMSO for indicated times prior to lysis in Passive Lysis Buffer (Promega, Madison, WI, USA). Luciferase activity in cellular lysates was assessed on a Glomax 20/20 luminometer (Promega) using the Luciferase Assay System (Promega). Results were normalized for GFP expression, upon transfection with GFP coding vector (1 μg). Representative results from 3 independent experiments are shown (n = 3). Error bars represent the Standard Error of the Mean. All samples were read at least in triplicate.

β-catenin = test: Western blot of β-catenin protein levels in MDA MB 231 cells; type: cell-based, human; details: MDA MB 231, 6 μM, 48 to 72 h
Method: Cells (1 × 10^5) were seeded in 6-well plates. After 24 h, cells were treated for indicated times with DMSO (vehicle) or FHP01 or XAV939 (Merck). After treatments, cells were washed with cold PBS and total protein extracts obtained by adding 80 µL of “RIPA Lysis buffer” (50 mM Tris-HCl pH 8.0, 150 mM NaCl, 0.5% Sodium deoxycholate, 0.1% SDS, 1% NP-40, 2 mM Orthovanadate, 2mM Sodium fluoride, 1mM Dithiothreitol and 1× protease inhibitors). After mechanicals detachment with cell scrapers, total lysates were collected in tubes, vortexed, and incubated for 15 min on ice. Tumors from mice were collected and disrupted by bead homogenization in Lysing Matrix D tubes using a FastPrep-24 5G homogenizer (MP Biomedicals, Solon, OH, USA) filled with “RIPA Lysis buffer” w:v. Next, samples were centrifuged for 10 min at 16,000× g, and supernatants were collected, representing total cell lysates.
Densitometric analysis of western blots was performed with NIH Image J (National Institutes of Health).

[2] = Pharmacokinetic profiling, plasma concentration in mice; type: in vivo, Swiss Albino mice
Method: These studies were performed at the GVKBioscience Pvt. LTD Contract Research and Development Organization (CRDO). Animals were housed in cages with clean bedding. Adult Swiss Albino male mice (weight = 20–35 g) were maintained and monitored for good health in accordance with GVKBioscience Pvt. LTD Test Facility SOPs and at the discretion of the laboratory animal veterinarian. Certified rodent diet was provided, and water was available ad libitum. A periodic analysis of the water was performed, and the results have been archived at the Test Facility. Environmental controls for the animal room were set to maintain a temperature of 22 to 25 °C, humidity of 40–70% relative humidity, and a 12-h light/12-h dark cycle. Animals have been dosed i.v. with 1 mg/kg of FHP01 i.p. with 10 mg/kg of compound or p.o. through gastric gavage needle with 50 mg/kg of compound. Next, mice were anesthetized using gaseous anesthesia and blood samples were collected at each time point, from 3 mice of respective group. After collection of blood samples at each time point, the blood samples were stored on ice, prior to centrifugation. Blood samples were centrifuged at 1540 rcf (5000 rpm), 4 °C for 10 min to separate plasma. Plasma was transferred to pre-labeled micro-centrifuge tubes and promptly frozen at −80 °C until analysis. Samples have been identified by test item, group, animal number, and collection time point. A fit-for-purpose bioanalytical method was developed for analyzing the plasma samples. One set of nine standards have been run before the sample batch and used for plotting the calibration curve. Quality control (QC) samples have been prepared at a minimum of three concentrations, i.e., LQC (not more than 5 times to that of lowest standard concentration), HQC (not less than 75% of the highest standard concentration), and MQC (between the low and high concentration). Minimum of 6 QC samples (three concentrations in duplicate). One Set of QC (LQC, MQC, and HQC) samples have been analyzed before and after the sample batch.

SKBR3 cells = test: Cell viability / cytotoxicity assay (cell counting); type: cell-based; details: Homo sapiens, SK-BR-3; SKBR3, 72 h
Method: (§1) Cells were seeded at 3–5 × 10^4 cells/well density (depending on cell lines) in 12-well plates, in triplicate, and maintained at 37 °C in 5% CO2. After 24 h, cells were treated with different concentrations of indicated drugs in a range from 0 to 100 μM (0, 0.1, 1, 10, 50, 100 μM). After 72 h incubation, cells were washed in PBS and harvested. Cell number of each sample was determined with Z2 Coulter Counter (Beckman Coulter, Brea, CA, USA), in triplicate. Data about cell viability were plotted in GraphPad Prism 8.0 software (GraphPad Software, San Diego, CA, USA) to draw dose-response curve and to calculate IC50.

MCF7 cells = test: as above; type: cell-based; details: Homo sapiens, MCF7, 72 h
Method: as §1

T47D cells = test: as above; type: cell-based; details: Homo sapiens, 72 h
Method: as §1

[3] = as above; type: cell-based; details: human, MCF10A control cells
Method: as §1

In the case of `CCCCc1cn(-c2ccc(NC(=O)Nc3ccccc3C(F)(F)F)cc2)nn1` [FHP01], the “WNT1- and WNT3A-dependent TCF/LEF transcriptional activity” value [1] is reported as “strong inhibition”, the β-catenin protein levels (β-catenin) is reported as “time-dependent reduction” and the plasma concentration profile ([2]; 1 mg/kg i.v.) is reported as “rapidly decreasing plasma concentration”. For the same molecule, the plasma concentration profile ([2]; 10 mg/kg i.p.) was “high plasma concentration”, the plasma concentration profile ([2]; 50 mg/kg p.o.) was “high plasma concentration” and the IC50 (SKBR3 cells) was 13.5 µM. The IC50 (MCF7 cells) was 12.4 µM, the IC50 (T47D cells) was 10.6 µM and the IC50 at 72 h [3] was 28.7 µM.
